This note sets out measurements from EP4772509A1, “KINESIN KIF18A INHIBITOR, AND APPLICATION THEREOF” (Shanghai Apeiron Therapeutics Company Limited, priority 2023, dated 2025).

The test system of one assay is OVCAR3 cells. In words: Cell proliferation activity test (CyQUANT Direct). The following applies: 3 days, 0.2% DMSO, CyQUANT fluorescence. The assay is classed as cell-based. The method in brief: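 OVCAR3 cells in RPMI-1640 with 10% FBS were seeded, then treated overnight later with compound at final 0–10 µM (0.2% DMSO) for 3 days at 37°C, 5% CO2. Proliferation was read as CyQUANT Direct fluorescence after 60 min at 37°C.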

A further assay has as its system HT29 cells. Briefly: CyQuant cell proliferation activity test. Format: cell-based. The following applies: HT29 at 2000 cells per well, 3 days, 0.2% DMSO, XLFIT. The method in brief: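 Cells seeded at 2000/well in RPMI-1640 with 10% FBS, left overnight, then exposed 3 days at 37 °C, 5% CO2 to a 9-point 3-fold series from 3000 nM (0.2% DMSO). CyQuant signal read after 1 h; IC50 from curve fit.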

Assay [1] deals with T1, Human KIF18A (amino acid sequence 1-417) (Homo sapiens, UniProt Q8NI77).
T1 construct: purchased Viva Biotech (Shanghai) Ltd
T1 sequence (Q8NI77 1-417): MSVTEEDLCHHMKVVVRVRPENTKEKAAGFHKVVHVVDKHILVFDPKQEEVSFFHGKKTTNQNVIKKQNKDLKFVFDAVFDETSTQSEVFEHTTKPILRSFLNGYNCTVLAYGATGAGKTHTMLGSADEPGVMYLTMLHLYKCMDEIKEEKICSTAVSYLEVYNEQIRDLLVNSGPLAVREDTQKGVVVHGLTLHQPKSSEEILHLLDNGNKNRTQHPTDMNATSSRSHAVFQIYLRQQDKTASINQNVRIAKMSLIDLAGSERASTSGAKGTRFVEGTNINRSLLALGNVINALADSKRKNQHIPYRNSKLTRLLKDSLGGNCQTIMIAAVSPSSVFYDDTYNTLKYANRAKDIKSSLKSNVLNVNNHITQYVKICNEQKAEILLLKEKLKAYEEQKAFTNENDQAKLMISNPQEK
In words: Enzymatic activity test (ADP-Glo, microtubule-stimulated ATPase). Format: biochemical. To be noted: 60 µg/mL microtubules, 25 µM ATP, 2.5 nM KIF18A protein, 120 min at ambient temperature, chemiluminescence; read-out: KIF18A IC50. In a few lines: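 Compounds (0-10 µM final, from 10 mM DMSO stock) were incubated 120 min at room temperature with 2.5 nM KIF18A 1-417, 25 µM ATP and 60 µg/mL microtubules. ATPase output was measured as ADP via ADP-Glo luminescence.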
Background: In ADP-Glo the light output rises with the ADP produced.

Read-outs that look alike come from different tables or passages of the source.

As to `COC(=O)c1cc2c(cc1NS(=O)(=O)CCO)N1CCC(C/C=C/C3CN(CCC3(F)F)c3nc(C)cc(n3)-c3cn-2nn3)CC1` (stereo not drawn) [Example 92A, methyl(3^4Z,7E)-1^4,1^4-difluoro-4^4-((2-hydroxyethyl)sulfonamido)-2^6-methyl 3^1H-2(2,4)-pyrimidin-1(1,3),5(1,4)-dipiperidin-3(4,1)-triazole-4(1,2)-benzocyclooct-7-en-4^5carboxylate], the IC50 with OVCAR3 cells (Homo sapiens, OVCAR-3, 72 h) worked out at 141 nM; in the assay on HT29 cells (Homo sapiens, HT-29, 72 h), 154 nM; in assay [1], 427 nM.
On to `COc1cc2nc(n1)N1CCC(F)(F)C(CCCc3ccc(cc3)-c3cc(NS(=O)(=O)CCO)ncc3C(=O)N2)C1` (single isomer, unassigned) [Example 56B, N-(1^4,1^4-difluoro-2^6-methoxy-4-oxo-3-aza-2(2,4)-pyrimidin-5(3,4)-pyridin-1(1,3)-piperidin-6(1,4)-benzoazacyclononane-5^6-yl)-2-hydroxyethane-1-sulfonamide], for which the IC50 with OVCAR3 cells is 112 nM; in the assay with HT29 cells (read-out: HT-29 IC50), 192 nM; in assay [1], 9 nM.
For `Cc1cc2nc(n1)N1CCC(F)(F)C(C=CCC3=CC=C(S3)c3cc(NS(=O)(=O)CCO)ccc3C(=O)N2)C1` (stereo not drawn) [Example 57, N-(1^4,1^4-difluoro-2^6-methyl-4-oxo-3-aza-2(2,4)-pyrimidin-1(1,3)-piperidin-6(2,5)-thiophene-5(1,2)-benzoazacyclon-8-en-5^4-yl)-2-hydroxyethane-1-sulfonamide], the IC50 was found to be 119 nM with OVCAR3 cells (Homo sapiens, OVCAR-3, 72 h); 22 nM in the assay with HT29 cells (Homo sapiens, HT-29, 72 h); 52 nM in assay [1].
As for “N-((3^4Z, 7Z)-1^4,1^4-difluoro-2^6-methyl-3^1H-2(2,4)-pyrimidin-1(1,3),5(1,4)-dipiperidin-3(4,1)-triazole-4(1,2)-benzocyclooct-7-en-4^4-y 1)-2-hydroxyethane-1-sulfonamide [Example 81A]”, the IC50 is 22 nM in the assay with OVCAR3 cells, 23 nM with HT29 cells (read-out: HT-29 IC50) and 219 nM in assay [1].
In the case of `Cc1cc2nc(n1)N1CCC(F)(F)C(C=CCC3CCN(CC3)c3cc(NS(=O)(=O)CCO)c4c(c3C(=O)N2)CCC4=O)C1` (single isomer, unassigned) [Example 2A, N-(1^4,1^4-difluoro-2^6-methyl-5^1,4-dioxo-5^2,5^3-dihydro-5^1H-3-aza-2(2,4)-pyrimidin-1(1,3),6(1,4)-dipiperidin-5(4,5)-indenoheterocyclonon-8-en-5^7-yl)-2-hydroxyethane-1-sulfonamide], the concentration for half-maximal inhibition (IC50) amounted to 8 nM in the assay on OVCAR3 cells, 9 nM in the assay on HT29 cells (read-out: HT-29 IC50) and 35 nM in assay [1].
For “2-Hydroxy-N-(1^4,1^4,5^1,5^1-tetrafluoro-2^6-methyl-4-dioxo-5^2,5^3-dihydro-5^1H-3-aza-2(2,4)-pyrimidin-1(1,3),6(1,4)-dipipe ridin-5(4,5)-benzofurancyclononane-8-en-5^7-yl)-methanesulfonamide [Example 21]” the same measures were 78 nM, 85 nM and 450 nM.
On to `Cc1cc2nc(n1)N1CCC(F)(F)C(/C=C/CC3CCN(CC3)c3cc(NS(=O)(=O)CCO)c(C(=O)O)cc3-n3cc-2nn3)C1` (stereo not drawn) [Example 91, 1^4,1^4-difluoro-4^4-((2-hydroxyethyl)sulfonamido)-2^6-methyl-3^1H-2(2,4)-pyrimidin-1(1,3),5(1,4)-dipiperidin-3(4,1)-triaz ole-4(1,2)-benzocyclooct-7-en-4^5 carboxylic acid], for which the IC50 in the assay with OVCAR3 cells (Homo sapiens, OVCAR-3, 72 h) was above 3000 nM; with HT29 cells (Homo sapiens, HT-29, 72 h), above 3000 nM; in assay [1], 37 nM.
Regarding `Cc1cc2nc(n1)N1CCC(F)(F)C(/C=C\CC3CCN(CC3)c3cc(NS(=O)(=O)CCO)c4ccccc4c3C(=O)N2)C1` (single isomer, unassigned) [Example 1B, (cis)-N-(1^4,1^4-difluoro-2^6-methyl-4-oxo-3-aza-2(2,4)-pyrimidin-1(1,3),6(1,4)-dipiperidin-5(1,2)-naphthacyclonon-8-en-5^4-yl)-2-hydroxyethane-1-sulfonamide], the values for the IC50 (in the assay on OVCAR3 cells; in the assay with HT29 cells (read-out: HT-29 IC50); in assay [1]) were 22 nM, 22 nM and 220 nM, respectively.

Broadly, the IC50 is the concentration at which inhibition is half-maximal.
